The record followed here is article PMC5895803, “Inhibition of cancer stem cell like cells by a synthetic retinoid” (Nature Communications, 2018).

The test system of this series is 3T3 fibroblasts. The series can be described thus: Non-cancerous 3T3 fibroblasts on rigid dishes. Type of series: cell-based, murine. Conditions: 0.1, 1, or 10 μM, 18 hrs. How it is done:
Murine fibroblast cell line 3T3 cells were cultured on rigid plastic and treated with 0.1, 1, or 10 μM WYC-209 at the time of plating and observed for 18 hrs. Cell nucleus were stained with DAPI and apoptotic cells were assayed with PI. None: medium only; DMSO: medium containing 0.1% DMSO. (a) Representative images of cells at hour 18. (b) Quantitation of cell numbers per view field at hour 18. Mean ± s.e.m.; n= 5 randomly chosen view-fields; 3 separate experiments; no significant differences were observed between groups (Student’s t-test). Scale bars, 500 μm.
(1 picture or pasted object on this page, not shown here)

Entries after “also recorded” stand apart in the source; their conditions may differ.

For the compound `CCOC(=O)c1cnc(C#Cc2ccc3c(c2)C(C)(C)CC[S+]3[O-])nc1` (stereo not shown) [WYC-209], the “Impact / toxicity on non-cancerous 3T3 fibroblasts” value is given as “little toxicity; also recorded: little impact”.
